Reference: ChEMBL document CHEMBL4680283, “Evaluation of 1,1-cyclopropylidene as a thioether isostere in the 4-thio-thienopyrimidine (TTP) series of antimalarials” (Bioorg Med Chem, 2020)

The compounds below were run on Plasmodium falciparum (assay: Antimalarial activity against chloroquine-sensitive Plasmodium falciparum 3D7 MRA-102 infected in human erythrocytes assessed as reduction in parasite growth incubated for 72 hrs by SYBR green dye based fluorescence assay). Details: 3D7 MRA-102, Erythrocyte.
Type: functional, organism-based

Structure (SMILES) | EC50 [µM]
Cn1c(Sc2ncnc3sccc23)nc2ccccc21 | 0.191
Cn1c(C2(c3ncnc4sccc34)CC2)nc2ccccc21 | > 23
CCOC(=O)/C=C(/c1nc(C)cs1)c1ncnc2sccc12 | 6.97
Cc1csc(Sc2ncnc3sccc23)n1 | 0.037
Cc1csc(C(=O)c2ncnc3sccc23)n1 | 4.08
Cc1csc(C2(c3ncnc4sccc34)CC2)n1 | > 23
Cc1csc(C(C)(O)c2ncnc3sccc23)n1 (configuration not stated) | > 23
